We go through 17 molecules from patent US20240067632A1, “WEE1 Degrading Compounds and Uses Thereof” (Bristol-Myers Squibb Company, priority 2022, published 2024).

Each structure is given as a SMILES string. Read-outs that look alike come from different tables or passages of the source.

One assay addresses T1, WEE1 (Homo sapiens, UniProt P30291+Q96SW2).
T1 construct: C-terminal ePL-tagged (DiscoverX, Fremont, CA) full-length WEE1 expression construct; expressed in transfected cells; host or cells: LentiX-HEK293T (Invitrogen), lentiviral transduction; co-expressing GSPT1-GN (G576N, lacking the first 158 amino acids)
In words: WEE1-ePL degradation assay (LentiX-WEE1-ePL-GSPT1-ND cells, InCELL Hunter luminescence, 4 h). Type of assay: cell-based. The conditions noted are these: 293T-LentiX WEE1-ePL cells; for DC50: read-out: 293T-LentiX WEE1-ePL Degradation 4 hr (EC50). The gist of the method:
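Luminescent readout (InCELL Hunter, 30 min RT) of WEE1-ePL levels in transduced HEK293T cells after 4 h compound exposure at 37 °C. Dosing: 10 points, 3-fold steps, top 1 uM or 10 uM. EC50 from four-parameter logistic fit; Ymax set by DMSO.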

In a further assay the test system is MKN45 cells. Put plainly: MKN45 cell proliferation assay (Cell-Titer-Glo, 120 h). It is filed as cell-based. The conditions noted are these: for EC50: Homo sapiens, MKN-45, 120 h, Cell-Titer-Glo, read-out: MKN45 Cell Prolif. 120 hr (EC50); for MKN45 Cell Prolif. 120 hr (Ymin-Obs): minimal percent of DMSO control observed in the concentrations tested. The gist of the method:
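Cells seeded at 400/well onto pre-printed 10-point half-log dilutions (top 1 or 10 uM, 0.1% DMSO final), in triplicate, and grown 120 h at 37 C. Viability by Cell-Titer-Glo luminescence, blank-subtracted and normalised to DMSO; EC50 from four-parameter logistic fit, with observed minimal % of control recorded as Ymin-obs.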

Where [1] appears, read: lower limit of the fit (0 = luciferase inhibitor, Ymax = DMSO control).
Setting [2] is: lower limit of the fit (Ymin=0 luciferase inhibitor, Ymax DMSO control).

By EC50 is commonly meant the concentration giving half of the maximal effect. Take `O=C1CCC(N2Cc3cc(O[C@H]4CCN(Cc5ccc6ncc(C(F)(F)F)cc6c5)C4)ccc3C2=O)C(=O)N1` (stereo partly drawn) [3-(1-oxo-5-{[(3S)-1-{[3-(trifluoromethyl)quinolin-6-yl]methyl}pyrrolidin-3-yl]oxy}-2,3-dihydro-1H-isoindol-2-yl)piperidine-2,6-dione]: at WEE1 (setting [1]), the “293T-LentiX WEE1-ePL Degradation 4 hr (Ymin)” value was 32. On WEE1, the DC50 stood at 2.85 nM. Besides, the EC50 with MKN45 cells (growth inhibition) amounted to 15.9 nM. For the same molecule, in the assay on MKN45 cells, the “MKN45 Cell Prolif. 120 hr (Ymin-Obs)” value is 11.23.

Consider `COC[C@@H]1CN(Cc2ccc3nc(N4CCN(C(C)=O)CC4)ccc3c2)C[C@H]1Oc1ccc2c(c1)CN([C@H]1CCC(=O)NC1=O)C2=O` [(3S)-3-(5-{[(3S,4S)-1-{[2-(4-acetylpiperazin-1-yl)quinolin-6-yl]methyl}-4-(methoxymethyl)pyrrolidin-3-yl]oxy}-1-oxo-2,3-dihydro-1H-isoindol-2-yl)piperidine-2,6-dione], for which, at WEE1 (setting [2]), the “293T-LentiX WEE1-ePL Degradation 4 hr (Ymin)” value stood at 27.27. For the same molecule, the DC50 at WEE1 was found to be 1.41 nM. Also, in the assay on MKN45 cells, the EC50 turned out to be 1.12 nM and the “MKN45 Cell Prolif. 120 hr (Ymin-Obs)” value is reported as 8.785.

For `O=C1CC[C@H](N2Cc3cc(O[C@H]4CCN(Cc5ccc6nc([C@H]7CCOC7)ccc6c5)C4)ccc3C2=O)C(=O)N1` [(3S)-3-(1-oxo-5-{[(3S)-1-({2-[(3R)-oxolan-3-yl]quinolin-6-yl}methyl)pyrrolidin-3-yl]oxy}-2,3-dihydro-1H-isoindol-2-yl)piperidine-2,6-dione], the “293T-LentiX WEE1-ePL Degradation 4 hr (Ymin)” value on WEE1 (setting [1]) was determined as 35.5. Besides, the DC50 on WEE1 is 2.59 nM. Besides, in the assay with MKN45 cells (growth inhibition), the concentration giving a half-maximal response (EC50) is 2.68 nM. The “MKN45 Cell Prolif. 120 hr (Ymin-Obs)” value with MKN45 cells was 8.547.

For the molecule `O=C1CCC(N2Cc3cc(O[C@H]4CCN(Cc5ccc6nc(N7CCS(=O)(=O)CC7)ccc6c5)C4)ccc3C2=O)C(=O)N1` (stereo partly drawn) [4-(6-{[(3S)-3-{[2-(2,6-dioxopiperidin-3-yl)-1-oxo-2,3-dihydro-1H-isoindol-5-yl]oxy}pyrrolidin-1-yl]methyl}quinolin-2-yl)-1λ^6-thiomorpholine-1,1-dione], the “293T-LentiX WEE1-ePL Degradation 4 hr (Ymin)” value on WEE1 (setting [1]) is given as 40. Besides, the DC50 on WEE1 amounted to 19.1 nM. Also, the EC50 in the assay with MKN45 cells (growth inhibition) came out at 29.4 nM. Moreover, in the assay on MKN45 cells, the “MKN45 Cell Prolif. 120 hr (Ymin-Obs)” value was 10.02.

In the case of `CO[C@H]1CC[C@@](C)(Nc2ccc3cc(CN4CC[C@H](Oc5ccc6c(c5)CN(C5CCC(=O)NC5=O)C6=O)C4)ccc3n2)CC1` (stereo partly drawn) [3-(1-oxo-5-{[(3S)-1-[(2-{[(1s,4s)-4-methoxy-1-methylcyclohexyl]amino}quinolin-6-yl)methyl]pyrrolidin-3-yl]oxy}-2,3-dihydro-1H-isoindol-2-yl)piperidine-2,6-dione], the “293T-LentiX WEE1-ePL Degradation 4 hr (Ymin)” value on WEE1 (setting [1]) was 26. The DC50 on WEE1 was found to be 3.41 nM. In the assay on MKN45 cells (growth inhibition), the EC50 came out at 0.882 nM. In addition, in the assay with MKN45 cells, the “MKN45 Cell Prolif. 120 hr (Ymin-Obs)” value came out at 8.44.

Turning to `CO[C@H]1CCC[C@H](c2ccc3cc(CN4CC[C@H](Oc5ccc6c(c5)CN(C5CCC(=O)NC5=O)C6=O)C4)ccc3n2)C1` (stereo partly drawn) [3-(5-{[(3S)-1-({2-[(1S,3S)-3-methoxycyclohexyl]quinolin-6-yl}methyl)pyrrolidin-3-yl]oxy}-1-oxo-2,3-dihydro-1H-isoindol-2-yl)piperidine-2,6-dione], the “293T-LentiX WEE1-ePL Degradation 4 hr (Ymin)” value at WEE1 (setting [1]) was 30.5. Besides, the DC50 at WEE1 came out at 3.58 nM. For the same molecule, the EC50 with MKN45 cells (growth inhibition) came out at 2.01 nM. Further, the “MKN45 Cell Prolif. 120 hr (Ymin-Obs)” value in the assay on MKN45 cells turned out to be 9.255.

Regarding `O=C1CC[C@@H](N2Cc3cc(O[C@H]4CCN(Cc5ccc6ncccc6c5)C4)ccc3C2=O)C(=O)N1` [(3R)-3-(1-oxo-5-{[(3S)-1-[(quinolin-6-yl)methyl]pyrrolidin-3-yl]oxy}-2,3-dihydro-1H-isoindol-2-yl)piperidine-2,6-dione], the “293T-LentiX WEE1-ePL Degradation 4 hr (Ymin)” value on WEE1 (setting [1]) stood at 26.94. In addition, the DC50 on WEE1 amounted to 3.55 nM. In addition, the EC50 with MKN45 cells (growth inhibition) worked out at 26.5 nM. The “MKN45 Cell Prolif. 120 hr (Ymin-Obs)” value in the assay with MKN45 cells was 12.45.

`O=C1CC[C@H](N2Cc3cc(O[C@H]4CCN(Cc5ccc6nc(N7CCCC7)ncc6c5)C4)ccc3C2=O)C(=O)N1` [(3S)-3-(1-oxo-5-{[(3S)-1-{[2-(pyrrolidin-1-yl)quinazolin-6-yl]methyl}pyrrolidin-3-yl]oxy}-2,3-dihydro-1H-isoindol-2-yl)piperidine-2,6-dione]: the “293T-LentiX WEE1-ePL Degradation 4 hr (Ymin)” value on WEE1 (setting [2]) is reported as 43.18. Besides, on WEE1, the DC50 turned out to be 6.04 nM. Further, in the assay on MKN45 cells, the EC50 is 26.9 nM and the “MKN45 Cell Prolif. 120 hr (Ymin-Obs)” value is on record as 21.92.

`O=C1CCC(N2Cc3cc(O[C@H]4CCN(Cc5ccc6nc([C@H]7CCC[C@@H](O)C7)ccc6c5)C4)ccc3C2=O)C(=O)N1` (stereo partly drawn) [3-(5-{[(3S)-1-({2-[(1S,3R)-3-hydroxycyclohexyl]quinolin-6-yl}methyl)pyrrolidin-3-yl]oxy}-1-oxo-2,3-dihydro-1H-isoindol-2-yl)piperidine-2,6-dione]: the “293T-LentiX WEE1-ePL Degradation 4 hr (Ymin)” value at WEE1 (setting [1]) worked out at 32. Further, the DC50 at WEE1 amounted to 9.66 nM. Besides, the EC50 with MKN45 cells (growth inhibition) came to 11.1 nM. In the assay on MKN45 cells, the “MKN45 Cell Prolif. 120 hr (Ymin-Obs)” value is 7.93.

In the case of `C[C@H]1CC(c2ccc3cc(CN4CC[C@H](Oc5ccc6c(c5)CN(C5CCC(=O)NC5=O)C6=O)C4)ccc3n2)CCO1` (stereo partly drawn) [3-(5-{[(3S)-1-({2-[(2S)-2-methyloxan-4-yl]quinolin-6-yl}methyl)pyrrolidin-3-yl]oxy}-1-oxo-2,3-dihydro-1H-isoindol-2-yl)piperidine-2,6-dione], the “293T-LentiX WEE1-ePL Degradation 4 hr (Ymin)” value on WEE1 (setting [1]) came out at 28.55. On WEE1, the DC50 is 2.97 nM. In the assay on MKN45 cells (growth inhibition), the EC50 is 4.39 nM. Besides, in the assay with MKN45 cells, the “MKN45 Cell Prolif. 120 hr (Ymin-Obs)” value was 10.88.

Consider `CC1(C)C[C@H](c2ccc3cc(CN4CC[C@H](Oc5ccc6c(c5)CN([C@H]5CCC(=O)NC5=O)C6=O)C4)ncc3c2)CCO1` [(3S)-3-(5-{[(3S)-1-({7-[(4R)-2,2-dimethyloxan-4-yl]isoquinolin-3-yl}methyl)pyrrolidin-3-yl]oxy}-1-oxo-2,3-dihydro-1H-isoindol-2-yl)piperidine-2,6-dione], for which the “293T-LentiX WEE1-ePL Degradation 4 hr (Ymin)” value at WEE1 (setting [2]) stood at 24.44. The DC50 at WEE1 is 1.09 nM. Moreover, in the assay on MKN45 cells, the EC50 amounted to 0.593 nM and the “MKN45 Cell Prolif. 120 hr (Ymin-Obs)” value was determined as 9.482.

As to `COC(C)(C)c1ccc2cc(CN3CC[C@H](Oc4ccc5c(c4)CN(C4CCC(=O)NC4=O)C5=O)C3)ccc2n1` (stereo partly drawn) [3-(5-{[(3S)-1-{[2-(2-methoxypropan-2-yl)quinolin-6-yl]methyl}pyrrolidin-3-yl]oxy}-1-oxo-2,3-dihydro-1H-isoindol-2-yl)piperidine-2,6-dione], the “293T-LentiX WEE1-ePL Degradation 4 hr (Ymin)” value at WEE1 (setting [1]) is reported as 32.5. Moreover, at WEE1, the DC50 was 2.6 nM. Further, the EC50 in the assay with MKN45 cells (growth inhibition) was determined as 2.98 nM. For the same molecule, the “MKN45 Cell Prolif. 120 hr (Ymin-Obs)” value in the assay with MKN45 cells was determined as 6.21.

`O=C1CCC(N2Cc3cc(O[C@H]4CCN(Cc5ccc6nc(N7[C@@H]8COC[C@H]7C8)ncc6c5)C4)ccc3C2=O)C(=O)N1` (stereo partly drawn) [3-(5-{[(3S)-1-({2-[(1R,5S)-3-oxa-6-azabicyclo[3.1.1]heptan-6-yl]quinazolin-6-yl}methyl)pyrrolidin-3-yl]oxy}-1-oxo-2,3-dihydro-1H-isoindol-2-yl)piperidine-2,6-dione]: the “293T-LentiX WEE1-ePL Degradation 4 hr (Ymin)” value at WEE1 (setting [1]) is 38. Moreover, the DC50 at WEE1 is 117 nM. Besides, the EC50 in the assay with MKN45 cells (growth inhibition) was 17 nM. Further, the “MKN45 Cell Prolif. 120 hr (Ymin-Obs)” value in the assay with MKN45 cells is 10.76.

With `O=C1CC[C@H](N2Cc3cc(O[C@H]4CCN(Cc5cc(C(F)(F)F)c6nc(C7CCOCC7)ccc6c5)C4)ccc3C2=O)C(=O)N1` [(3S)-3-(5-{[(3S)-1-{[2-(oxan-4-yl)-8-(trifluoromethyl)quinolin-6-yl]methyl}pyrrolidin-3-yl]oxy}-1-oxo-2,3-dihydro-1H-isoindol-2-yl)piperidine-2,6-dione], at WEE1 (setting [2]), the “293T-LentiX WEE1-ePL Degradation 4 hr (Ymin)” value was 42.83. Further, on WEE1, the DC50 was 2.48 nM. Also, in the assay with MKN45 cells, the concentration for a half-maximal effect (EC50) worked out at 2.99 nM and the “MKN45 Cell Prolif. 120 hr (Ymin-Obs)” value is 2.25.

Turning to `O=C1CCC(N2Cc3cc(O[C@H]4CCN(Cc5cc6cccnc6cn5)C4)ccc3C2=O)C(=O)N1` (stereo partly drawn) [3-(5-{[(3S)-1-[(1,7-naphthyridin-6-yl)methyl]pyrrolidin-3-yl]oxy}-1-oxo-2,3-dihydro-1H-isoindol-2-yl)piperidine-2,6-dione], on WEE1 (setting [1]), the “293T-LentiX WEE1-ePL Degradation 4 hr (Ymin)” value is listed as 26.505. The DC50 at WEE1 is 14.7 nM. For the same molecule, the EC50 with MKN45 cells (growth inhibition) was 102 nM. Further, the “MKN45 Cell Prolif. 120 hr (Ymin-Obs)” value in the assay on MKN45 cells is 9.59.

`[2H]c1ccc2cc(CN3CCC(Oc4ccc5c(c4)CN(C4CCC(=O)NC4=O)C5=O)C3)ccc2n1` [3-(1-oxo-5-{[(3S)-1-{[(2-^2H)quinolin-6-yl]methyl}pyrrolidin-3-yl]oxy}-2,3-dihydro-1H-isoindol-2-yl)piperidine-2,6-dione]: the “293T-LentiX WEE1-ePL Degradation 4 hr (Ymin)” value at WEE1 (setting [1]) was 29.5. Besides, the DC50 at WEE1 turned out to be 4.09 nM. In addition, in the assay on MKN45 cells (growth inhibition), the EC50 turned out to be 26.9 nM. In the assay on MKN45 cells, the “MKN45 Cell Prolif. 120 hr (Ymin-Obs)” value worked out at 9.14.

For the molecule `CN1CC(=O)Oc2cc(CN3CC[C@H](Oc4ccc5c(c4)CN(C4CCC(=O)NC4=O)C5=O)C3)ccc21` (stereo partly drawn) [3-(5-{[(3S)-1-[(4-methyl-2-oxo-3,4-dihydro-2H-1,4-benzoxazin-7-yl)methyl]pyrrolidin-3-yl]oxy}-1-oxo-2,3-dihydro-1H-isoindol-2-yl)piperidine-2,6-dione], the “293T-LentiX WEE1-ePL Degradation 4 hr (Ymin)” value at WEE1 (setting [1]) amounted to 52. Moreover, the DC50 at WEE1 is 24.2 nM. For the same molecule, the EC50 in the assay with MKN45 cells (growth inhibition) is over 10000 nM. Also, the “MKN45 Cell Prolif. 120 hr (Ymin-Obs)” value with MKN45 cells worked out at 91.915.
